Reference: US11884636B2, “Gonadotropin releasing hormone receptor antagonist and use thereof” (SHIJIAZHUANG YILING PHARMACEUTICAL CO., LTD., priority 2020, dated 2024)
Entries after “also recorded” stand apart in the source; their conditions may differ. Where two headings read alike, the source gives them in different places.

Columns and labels:
[1] = monkeys; cited from earlier work
[2] = rats; cited from earlier work
[3] = mice, dose of 10 mg/kg; cited from earlier work
[4] = human bodies; cited from earlier work
[5] = rats, oral radiolabeled Elagolix; cited from earlier work
[6] = tested on: serum luteinizing hormone (LH); experiment: Pharmacodynamic assay in male emasculated cynomolgus monkeys (serum LH); assay type: in vivo
Description: Three male cynomolgus monkeys (purchased from Guangxi GuiDong Quadrumana Development & Laboratory Co., Ltd.), 3 to 5 years old (weight 3.8 to 4.0 kg), were fasted overnight and underwent bilateral orchiectomy under anesthesia. Serum luteinizing hormone (LH) was measured in the cynomolgus monkeys from 3 to 7 weeks after emasculation using radioimmunoassay.
After successful emasculation surgical modeling, G201 and Elagolix Sodium (dissolvent: 0.5% CMC-Na) were given in 2 administration cycles by single oral gavage at doses of 10 mg/kg and 30 mg/kg, respectively, both in a volume of 10 mL/kg. Each administration cycle was separated by an elution period of approximately 2 weeks. For each cycle of administration, blood was collected before and 0.25, 0.5, 1, 2, 3, 6, 8 and 24 h after administration, respectively, and serum was separated for gonadal hormone LH assay.

[7] = target: T1, recombinant human gonadotropin-releasing hormone receptor (GnRHR) (Homo sapiens, UniProt P30968); experiment: FLIPR calcium flux assay in CHO-K1/GNRHR/Gα15 cells; assay type: cell-based; settings: Buserelin EC80 agonist, read-out: EC50, inhibition of intracellular calcium release
T1 construct: expressed in transfected cells
T1 sequence (P30968 1-328): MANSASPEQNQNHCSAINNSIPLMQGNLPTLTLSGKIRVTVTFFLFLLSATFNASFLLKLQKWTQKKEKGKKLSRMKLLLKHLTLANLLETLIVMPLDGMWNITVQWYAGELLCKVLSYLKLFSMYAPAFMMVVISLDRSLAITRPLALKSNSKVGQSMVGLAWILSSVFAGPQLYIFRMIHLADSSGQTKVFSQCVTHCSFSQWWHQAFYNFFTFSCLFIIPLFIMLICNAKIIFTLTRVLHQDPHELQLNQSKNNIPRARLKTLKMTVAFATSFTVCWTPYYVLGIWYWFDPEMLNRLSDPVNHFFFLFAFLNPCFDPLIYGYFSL
Description: Intracellular calcium changes of cell line CHO-K1/GNRHR/Gα15 that is stable of a recombinant human gonadotropin-releasing hormone receptor (GnRHR) were measured using an FLIPR calcium flux assay kit (Calcium 4 assay kit). GnRHR is a G protein-coupled receptor (GPCRs), and a GPCRs signal enabled intracellular calcium release through a Gq pathway. Therefore, functional changes of GnRHR, which carried out signal transduction through the Gq pathway, can be detected by detecting intracellular calcium release with a calcium-sensitive fluorescent probe. The assay steps were as follows: • 1. Cells were seeded in 384-well plates (Corning, Cat #:3764) at a density of 10,000 cells/well with an F12+10% FBS medium (20 μl/well) and cultured overnight (18 h). • 2. A dye working solution was prepared from a probenecid stock solution (500 mM) and a Calcium 4 stock solution mixed at 1:100. A sample to be tested G201 and Elagolix (2 mM in DMSO) was diluted with an assay buffer, specifically, 5 μl of 2 mM stock solution was taken and diluted to 200 μl (50 μM) to obtain a 5× sample working solution of a first concentration. 20 μl of the 5× sample working solution was taken and diluted to 200 μl, and after even mixing, a sample working solution of a second concentration was obtained. A total of eight gradient dilutions of sample working solutions were prepared respectively. […]

[8] = Mouse pharmacokinetic assay; assay type: in vivo; settings: ICR mice
Description: 10 female ICR mice, divided into two groups of five per group, were administrated G201 intravenously and by oral gavage, respectively, at a dose of 10 mg/kg. Blood was collected from the retro-orbital venous plexus 0.083, 0.25, 0.5, 1, 2, 4, 6, 8 h after administration, and the volume of blood collected was approximately 0.1 mL. A blood sample was centrifuged at 4000 rpm for 10 min within 1 h. The upper layer of plasma was separated and stored in a refrigerator at minus 80° C. within 1 h to be measured. The subject animals were fasted for at least 12 h before blood collection and were not water fasted. Food and water were fasted during blood collection and free 2 h after administration. The plasma concentration of G201 in the ICR mice was measured by an LC-MS/MS method, and main pharmacokinetic parameters were calculated by applying DAS 3.2.7 pharmacokinetic software and include AUC0-4, AUC0-∞, Cmax, t1/2, etc.

[9] = Rat pharmacokinetic assay; assay type: in vivo; settings: SD rats; for F (absolute bioavailability) / bioavailability: oral gavage 50 mg/kg vs intravenous 25 mg/kg; for bioavailability / AUC(0-inf) / Cmax / Tmax / AUC(0-t) / clearance / Vd: female, rat, plasma; for bioavailability: SD, oral, 50 mg/kg, read-out: F (absolute bioavailability); for AUC(0-t): read-out: AUC0-24 h; for clearance: read-out: CLz (clearance rate) (converted); for Vd: read-out: Vz (apparent volume of distribution)
Description: 12 female SD rats, divided into four groups of three per group, were administrated G201 (dissolved in saline containing 5% N,N-dimethylacetamide and 5% cremophor ELL) and Elagolix Sodium (dissolved directly in saline) intravenously and by gavage at doses of 25 mg/kg and 50 mg/kg, respectively. Food was fasted overnight before administration and resumed 4 h after administration, with free access to water throughout the assay period. Blood was collected from the retro-orbital venous plexus before and 5, 15, 30 min, 1, 2, 4, 6, 8, 24 h after administration, and the volume of blood collected was approximately 0.2 mL. A whole blood sample centrifuged at 4000 rpm for 10 min within 1 h from collection. The upper layer of plasma was separated and stored in a refrigerator at minus 20° C. within 1 h until analysis. After the plasma sample were precipitated by methanolic protein at 1:8, G201 and Elagolix plasma concentrations were measured by an LC-MS/MS method, and main pharmacokinetic parameters were calculated by applying DAS3.2.7 software.

[10] = female, mouse, plasma, intravenous injection 10 mg/kg
[11] = female, mouse, plasma, oral administration 10 mg/kg

| t1/2z ([9]; intravenous injection 25 mg/kg) [min] | t1/2z ([9]; oral gavage 50 mg/kg) [min] | F (absolute bioavailability) [9] [%] | bioavailability [9] [%] | AUC(0-inf) ([9]; intravenous injection 25 mg/kg) [ng·h/mL] | Cmax ([9]; intravenous injection 25 mg/kg) [ng/mL] | Tmax ([9]; intravenous injection 25 mg/kg) [min] | AUC(0-t) ([9]; intravenous injection 25 mg/kg) [ng·h/mL] | clearance ([9]; intravenous injection 25 mg/kg) [mL/min/kg] | Vd ([9]; intravenous injection 25 mg/kg) [L/kg] | AUC(0-inf) ([9]; oral gavage 50 mg/kg) [ng·h/mL] | Cmax ([9]; oral gavage 50 mg/kg) [ng/mL] | Tmax ([9]; oral gavage 50 mg/kg) [min] | AUC(0-t) ([9]; oral gavage 50 mg/kg) [ng·h/mL] | SMILES | also measured |
| --- | --- | --- | --- | --- | --- | --- | --- | --- | --- | --- | --- | --- | --- | --- | --- |
| – | – | – | – | – | – | – | – | – | – | – | – | – | – | COc1cccc(-c2c(C)n(Cc3c(F)cccc3C(F)(F)F)c(=O)n(C[C@H](NCCCC(=O)[O-])c3ccccc3)c2=O)c1F.[Na+] [Elagolix, Sodium R-(+)-4-{2-[5-(2-Fluoro-3-methoxyphenyl)-3-(2-fluoro-6-[trifluoromethyl]-benzyl)-4-methyl-2,6-dioxo-3,6-dihydro-2H-pyrimidin-1-yl]-1-phenylethylamino}butyrate] | absolute oral bioavailability [1]: 11%; absolute oral bioavailability [2]: 5.8%; absolute bioavailability [3]: 10%; apparent volume of distribution [4]: 1674 L; total radioactivity excreted through the bile [5]: ~50% |
| 47.4 | 282 | 51.9 | 51.9 | 15700 | 27200 | 4.8 | 15700 | 27 | 1.82 | 16400 | 17000 | 25.2 | 16300 | COc1cccc(-c2c(C)n(Cc3c(F)cccc3C(F)(F)F)c(=O)n(C[C@H](NCCCC(=O)O)c3ccccc3F)c2=O)c1F [Compound G201] | general condition, weight and abnormalities during the assay period ([6]; single oral gavage 10 mg/kg): no subject-related abnormalities were observed; serum LH change after administration ([6]; single oral gavage 10 mg/kg): decreased significantly; time of serum LH minimum after administration ([6]; single oral gavage 10 mg/kg): 3 h; serum LH inhibitory effect compared with 30 mg/kg Elagolix Sodium ([6]; single oral gavage 10 mg/kg G201): slightly higher magnitude of change; also recorded: comparable or superior; IC50 [7]: 37.6 nM; CLz ([8]; intravenous injection 10 mg/kg): 53 mL/min/kg; t1/2z ([8]; intravenous injection 10 mg/kg): 15.6 min; t1/2z ([8]; oral administration 10 mg/kg): 25.8 min; AUC(0-inf) [8, 10]: 3250 ng·h/mL; AUC(0-t) [8, 10]: 3240 ng·h/mL; Vd ([8]; female, mouse, plasma, intravenous injection 10 mg/kg, read-out: Vz): 1.17 L/kg; AUC(0-inf) [8, 11]: 1270 ng·h/mL; AUC(0-t) [8, 11]: 1010 ng·h/mL; Cmax [8, 11]: 2000 ng/mL; Tmax [8, 11]: 16.2 min; bioavailability ([8]; female, mouse, plasma, oral administration 10 mg/kg vs intravenous 10 mg/kg, read-out: F (absolute bioavailability)): 38.9%; oral AUC0-∞ relative to that of Elagolix Sodium ([9]; oral gavage 50 mg/kg): three times |
| 130 | 272 | 23.7 | 23.6 | 10200 | 15600 | 4.8 | 10200 | 41.3 | 8.46 | 4870 | 4660 | 25.2 | 4830 | COc1cccc(-c2c(C)n(Cc3c(F)cccc3C(F)(F)F)c(=O)n(C[C@H](NCCCC(=O)[O-])c3ccccc3)c2=O)c1F.[Na+] [Elagolix Sodium, Sodium R-(+)-4-{2-[5-(2-Fluoro-3-methoxyphenyl)-3-(2-fluoro-6-[trifluoromethyl]-benzyl)-4-methyl-2,6-dioxo-3,6-dihydro-2H-pyrimidin-1-yl]-1-phenylethylamino}butyrate, reference compound] | general condition, weight and abnormalities during the assay period ([6]; single oral gavage 30 mg/kg): no subject-related abnormalities were observed; serum LH change after administration ([6]; single oral gavage 30 mg/kg): decreased significantly; time at which serum LH returned to the pre-administration level ([6]; single oral gavage 30 mg/kg): 24 h; time of serum LH minimum after administration ([6]; single oral gavage 30 mg/kg): 3 h |
